Data set [1] can be described thus: ulcerogenic activity test (GI). The conditions noted are these: in vivo, po. From the text: (The ulcerogenic activity test is hereafter referred to as GI).
The test system of data set [2] is adjuvant-induced polyarthritis syndrome. Briefly: adjuvant-induced polyarthritis syndrome in rats (inhibition of paw volume). Type of data set: in vivo, male Charles River-Wistar Lewis rats. The conditions noted are these: 504 h, rat, oral, from day before adjuvant, continued for 21 days. As for the experimental part: The (6,11-dihydro-11-oxodibenz[b,e]oxepinyl)pentanoic acids and derivatives thereof of the present invention are useful as antiarthritic agents due to their ability to suppress arthritis-type inflammation in mammals. […] M. Perron and F. D. Wood, Arthritis and Rheumatism, 2, 440 (1959).
Groups of 10 male Charles River-Wistar Lewis rats weighing 150 to 175 g were individually housed and maintained on a regular rat chow diet. Water was given ad libitrim. The adjuvant was prepared by suspending 75 mg of Mycobacterium butyricum (Defco Laboratories, Detroit, Mich.) in 10 ml of white paraffin oil with continuous stirring for 2 hrs at room temperature prior to administration. Test compounds are prepared by suspending the drug in water, adding one drop of Tween 80 per 10 ml of suspension, and homogenizing. The adjuvant suspension (0.1 ml) was injected into the footpad of the left hind paw of the rat. Test compound suspensions were administered orally (10 ml/kg) the day before adjuvant suspension injection and the administration was continued for 21 days. One group of ten rats was used for the test drug, standard, adjuvant-injected control and non-injected control. Control animals received vehicle (10 ml/kg). Three doses of test drug and one dose of standard preparation were used. Injected and non-injected paw volumes were determined on the day the adjuvant suspension was given, and on subsequent days thereafter (usually days 5, 10, 18, and " the method of C. A. Winter, et al., Proc. Soc. Exp. Biol. Med., 111, 544 (1962).
The percent inhibition of paw volume (injected and non-injected hind paw) was calculated by the following formula: [formula]
ED50 -values, i.e., the dose at which the drug affects a 50% inhibition of paw volume, were estimated by the method of J. T. Litchfield and F. Wilcoxon, J. Pharm. Exp. Ther., 96, 99 (1948) and statistically evaluated by means of the student "t" test.

The mark [3] stands for this setting: injected hind paw, read-out: ED50 (dose at which the drug affects a 50% inhibition of paw volume), injected paw.
The mark [4] stands for this setting: non-injected hind paw, read-out: ED50 (dose at which the drug affects a 50% inhibition of paw volume), non-injected paw.

Results on three compounds are retold here after patent US5008285A, “(6,11-dihydro-11-oxodibenz[b,e]oxepin-yl)pentanoic acids and derivatives thereof” (Hoechst-Roussel Pharmaceuticals, Inc., priority 1989, dated 1991).

Like-named read-outs stand apart in the source and are kept apart here. Where only a bound is given, the exact number is not on record here.

As for `CC(C(=O)O)c1ccc2c(c1)C(=O)c1ccccc1CO2` (stereo not drawn) [2-(6,11-Dihydro-11-oxodibenz[b,e]-oxepin-2-yl)propionic acid], the TD50 in data set [1] (read-out: GI ID50 (ulcerogenic activity)) worked out at 5.5 mg/kg.
By ED50 is commonly meant the dose that gives a 50% effect, or the effect in half of the subjects. Turning to `CC(CCC(=O)O)c1ccc2c(c1)C(=O)c1ccccc1CO2` (stereo not drawn) [4-(6,11-Dihydro-11-oxodibenz[b,e]oxepin-2-yl)pentanoic acid], the 50% effective dose (ED50) stood at 6.4 mg/kg in data set [2] (setting [3]) and 3.4 mg/kg in data set [2] (setting [4]). For the same compound, in data set [1], the TD50 was > 100 mg/kg.
`CCCCC1C(=O)N(c2ccccc2)N(c2ccccc2)C1=O` [Phenylbutazone]: the ED50 in data set [2] (setting [3]) amounted to 12 mg/kg; in data set [2] (setting [4]) it was 6.8 mg/kg.
